From patent US20240327382A1 (ALMAC DISCOVERY LIMITED, priority 2021, published 2024) come the findings set out here.

Series [1] addresses T1, Full-length USP19 (Homo sapiens, UniProt O94966).
T1 construct: Full-length USP19 was purchased from Boston Biochem (E-576); purchased Boston Biochem E-576
T1 sequence (O94966 1-1318): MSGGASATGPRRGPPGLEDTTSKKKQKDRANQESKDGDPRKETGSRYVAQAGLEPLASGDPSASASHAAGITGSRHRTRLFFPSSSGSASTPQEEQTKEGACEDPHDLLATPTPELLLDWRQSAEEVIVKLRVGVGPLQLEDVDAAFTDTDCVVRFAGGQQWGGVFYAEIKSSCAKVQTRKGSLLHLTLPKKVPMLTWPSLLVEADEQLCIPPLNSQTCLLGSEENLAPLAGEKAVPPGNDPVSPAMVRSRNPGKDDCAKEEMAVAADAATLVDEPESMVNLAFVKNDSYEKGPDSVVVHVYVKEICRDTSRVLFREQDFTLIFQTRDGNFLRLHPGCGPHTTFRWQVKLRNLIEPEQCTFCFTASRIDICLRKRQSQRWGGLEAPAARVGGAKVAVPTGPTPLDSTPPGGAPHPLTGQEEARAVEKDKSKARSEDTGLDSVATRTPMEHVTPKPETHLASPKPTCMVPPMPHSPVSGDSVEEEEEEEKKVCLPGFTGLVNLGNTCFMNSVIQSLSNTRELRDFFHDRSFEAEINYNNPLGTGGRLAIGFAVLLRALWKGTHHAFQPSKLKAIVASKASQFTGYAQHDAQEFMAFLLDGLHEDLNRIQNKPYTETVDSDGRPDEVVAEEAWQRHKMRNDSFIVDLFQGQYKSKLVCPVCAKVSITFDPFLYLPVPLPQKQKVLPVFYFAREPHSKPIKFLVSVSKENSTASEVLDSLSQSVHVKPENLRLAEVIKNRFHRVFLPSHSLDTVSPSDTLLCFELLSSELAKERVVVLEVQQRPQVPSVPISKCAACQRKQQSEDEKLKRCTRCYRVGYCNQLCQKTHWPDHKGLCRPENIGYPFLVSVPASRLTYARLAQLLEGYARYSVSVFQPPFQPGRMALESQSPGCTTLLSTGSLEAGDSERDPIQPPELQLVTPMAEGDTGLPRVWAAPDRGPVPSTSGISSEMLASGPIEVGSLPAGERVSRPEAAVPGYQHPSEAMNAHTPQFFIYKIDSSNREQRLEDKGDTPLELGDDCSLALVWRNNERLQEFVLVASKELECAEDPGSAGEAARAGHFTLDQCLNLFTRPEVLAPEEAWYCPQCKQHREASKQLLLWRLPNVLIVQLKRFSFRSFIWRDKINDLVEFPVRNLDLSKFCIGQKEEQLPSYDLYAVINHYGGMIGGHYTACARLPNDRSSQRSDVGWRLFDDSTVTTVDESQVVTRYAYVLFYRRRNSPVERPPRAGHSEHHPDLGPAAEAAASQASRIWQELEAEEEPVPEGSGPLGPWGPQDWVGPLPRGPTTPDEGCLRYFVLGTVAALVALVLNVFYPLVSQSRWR
Kind of series: USP19 fluorescence polarisation (FP) assay, Ubiquitin-Lys-TAMRA substrate. In kind it is biochemical. Conditions: for IC50: average of at least two duplicate experiments. In outline:
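Full-length human USP19 (added at 2.5 nM) was preincubated 30 min at RT with inhibitor (serial dilutions 200 μM to 2 μM) in 50 mM HEPES pH 7.4, 150 mM NaCl, 5 mM DTT, 0.05% BSA, 0.05% CHAPS. Ubiquitin-Lys-TAMRA isopeptide substrate (added at 500 nM) started the reaction, and FP (Ex 530/Em 575 nm) was read every 15 min over 90 min. IC50 came from non-linear regression of signal normalised to no-compound control, averaged over at least two duplicate experiments.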

The test system of series [2] is USP19. The series can be described thus: Cellular target engagement using western blotting (Ub-PA / Ub-VME probe). Type of series: cell-based. The settings on record: breast cancer, neuroblastoma and mouse skeletal muscle cell lines. How it is done: Cells from a breast cancer cell line, a neuroblastoma cell line and a mouse skeletal muscle cell line were treated with a USP19 inhibitor compound (ADC-141) for 2 hrs, lysed (lysis buffer: 50 mM Tris pH 7.4; 150 mM NaCl; 5 mM MgCl2; 0.5 mM EDTA; 0.5% NP40; 10% Glycerol; 2 mM DTT) and Ubiquitin-propargylamine (Ub-PA; UbiQ) or Ubiquitin-vinyl methyl ester (Ub-VME; Almac Sciences Scotland Limited) was then added. Samples were analysed by western blotting probing for USP19 (EC50 determined by densitometry).

In series [3] the test system is male C57bl/6 mice. The series can be described thus: Sciatic nerve denervation muscle wasting model. Type of series: in vivo, mouse. The settings on record: 75 mg/kg IP twice daily. How it is done: To induce muscle wasting, a 1 cm segment of the sciatic nerve in the thigh was removed from mice (male C57bl/6 mice at 8-10 weeks of age; n=10 per group) under isoflurane anaesthesia and analgesia with carprofen. A sham operation was carried out in the opposite leg as a control.
Mice were randomised into Vehicle or Test groups, with all animals weighed to ensure a similar mean weight in each group. ADC-141, a USP19 inhibitory compound at 75 mg/kg or Vehicle was administered IP twice daily starting from the evening post-operation.
Mice were sacrificed 14 days later. Fat pads, liver, gastrocnemius and tibialis anterior muscles were harvested. Tissue mass were measured in both groups.

The test system of series [4] is diet-induced obese (DIO) mouse. Kind of series: Diet-induced obesity (DIO) mouse model with OGTT. Type of series: in vivo, Male C57BL6/J mice. Conditions: 5 or 25 mg/kg i.p. BID. On the procedure: To assess obesity and insulin resistance, a diet-induced obesity mouse model was used.
Male C57BL6/J mice were continuously provided with high-fat diet (D12451, 45% kcal as fat; Research Diets, New Jersey, USA) and filtered tap water ad libitum for the duration of the study. From day 0, mice were administered vehicle i.p. BID, USP19 inhibitor (ADC-141) i.p. BID at 5 mg/kg or 25 mg/kg, or positive control liraglutide 0.1 mg/kg s.c. BID.
Body weight was measured daily. On Day 13, body composition was be assessed by DEXA. On Day 15, fasting glucose and insulin levels were measured before and during an oral glucose tolerance test (OGTT) to assess improvements in glucose control. The OGTT was performed following an overnight fast. […] An OGTT was performed the following morning (approx. 16 h post fast). Mice were dosed with vehicle or test compound (starting at 08.45) to a timed schedule 30 minutes prior to the administration of the glucose challenge (2.0 g/kg po). Blood samples were taken immediately prior to dosing (B1), immediately prior to glucose administration (B2) and 15, 30, 60 and 120 minutes after glucose administration.

Series [5] concerns the target T2, USP19 (Homo sapiens, UniProt O94966).
T2 construct: expressed in transfected cells; host or cells: HEK293T
T2 sequence (O94966 1-1318): T1 sequence (O94966 1-1318)
Kind of series: Cellular target engagement using HTRF assay (USP19-Flag transfected cells). In kind it is cell-based. Conditions: HEK293T cells; read-out: HTRF TE IC50. On the procedure:
USP19 cellular target engagement was determined in a homogenous time resolved fluorescence (HTRF) assay using HA-tagged ubiquitin vinyl pentynyl sulfone (VPS) probe (UbiQ-193, UbiQ Bio) and a USP19-Flag overexpression construct. Inhibitors were stored as 10 mM DMSO stocks in an inert environment (low humidity, dark, low oxygen, rt) using the StoragePod® system (Roylan Developments). USP19-Flag transfected cells were incubated with serially diluted compound in an 11 point dose response curve (from 50 μM to 0.01 nM) for 2 h and then washed in PBS and lysed. Unless otherwise stated, all HTRF reagents were purchased from CisBio. HTRF assays using cell lysates were completed in 384 well plates (Greiner) in a 20 μL total volume. Cell lysates were incubated with HA-tagged ubiquitin VPS probe for 40 min in PPI detection buffer prior to addition of anti-HA and anti-FLAG HTRF detection reagents. HTRF was measured every 1 h for 18 h using a Pherastar FSX plate reader (excitation of 337 nm, emission of 620/665 nm). Data was normalised to DMSO (no compound controls) and fitted using IC50 values derived using Prism (GraphPad) using nonlinear regression curve fitting.

Series [6] can be described thus: Caco-2 permeability assay. Type of series: in vitro ADME. The settings on record: human, apical to basolateral (A:B), read-out: caco-2 Papp AB. On the procedure:
Caco-2 cells are commonly used as an in vitro model for the prediction of human intestinal absorption of test compounds. When cultured, Caco-2 cells (derived from a human colorectal carcinoma) spontaneously differentiate into monolayers of polarised enterocytes. The cells are seeded on multiwell-insert plates and form a confluent monolayer over 20 d before the assay. On day 20, compound was added to the apical side of the membrane and the flux of the compound across the monolayer was monitored over 2 h. All data was generated at Cyptotex.

The nature of series [7]: Thermodynamic solubility assay. In kind it is physicochemical. The settings on record: aqueous buffer, thermodynamic from solid, PBS buffer pH 7.4, read-out: TSol. How it is done:
Test compound (˜0.5 mg, accurately weighed) was suspended in PBS buffer pH 7.4 (Dulbecco A) to a concentration of 1 mg/mL in a high recovery glass vial in duplicate. The suspensions were shaken at 300 rpm at rt for 64 h. About 250 μL of suspension were then transferred to a MultiScreen® Solubility filter plate (Millipore) in duplicate. Concentrations of the filtrates were then quantified against a 5-point calibration curve in a mixture of acetonitrile/PBS buffer (top concentration […]). After filtration and matrix match, the calibration and assay plates were analysed on a Bioteck Synergy 4 plate reader (240-400 nm). Final concentration of the test compound in the filtrate was calculated using the slope of the calibration curve.

Turning to `C[C@H](CC1CCCCC1)C(=O)N1CC[C@@](O)(Cn2cc(C(=O)N3CCNCC3)c(-c3ccccc3)cc2=O)C2(CCCC2)C1` [ADC-141, 1-(((S)-7-((R)-3-cyclohexyl-2-methylpropanoyl)-10-hydroxy-7-azaspiro[4.5]decan-10-yl)methyl)-4-phenyl-5-(piperazine-1-carbonyl)pyridin-2(1H)-one], in series [1] (fluorescence polarisation assay, qualitative), the USP19 inhibitory activity entry is recorded as “shown to have USP19 inhibitory activity”. Further, the cell permeability entry in series [2] is reported as “good cell permeability”. Besides, the “EC50 determined by densitometry” value in series [2] (2 hrs treatment) is listed as “low nanomolar”. Moreover, in series [3] (2 weeks, vs vehicle), the liver mass entry is on record as “increase in liver mass” and the “mass of the epididymal fat pad” value is listed as “significantly smaller fat pads”. In addition, the “muscle wasting in the gastrocnemius muscle” value in series [3] (14 days, trend did not reach significance) is given as “reduced”. Moreover, the “loss of muscle mass in the tibialis anterior muscle” value in series [3] (14 days, vs vehicle) is given as “significantly lower loss of muscle mass”. Also, in series [4] (DEXA Day 13), the fat mass entry is “reduction in fat mass” and the lean body mass result was “preserved”. For the same compound, in series [4] (Day 15), the “plasma glucose in OGTT” value is “decreased plasma glucose” and the “plasma insulin in OGTT” value is on record as “decreased plasma insulin”. The OGTT response result in series [4] (Day 15, glucose 2.0 g/kg po) was “dose-dependent improvement in OGTT response”. In addition, the “overall body weight gain” value in series [4] (high-fat diet) was “reduction in overall body weight gain”. The cumulative food intake result in series [4] (vs vehicle control) is on record as “reduction in cumulative food intake”.

Regarding `O=C(N1CC[C@@H](Cn2ccc(-c3ccccc3)cc2=O)C2(CCCC2)C1)N1CCNC[C@H]1c1ccccc1`, the IC50 in series [5] was 3 µM. In addition, the Papp A→B at 2 h in series [6] was 1 ×10⁻⁶ cm/s. Moreover, the solubility thermodynamic at 64 h in series [7] worked out at 1 µM.

Regarding `O=C(N1CC[C@@H](Cn2cnc(-c3ccccc3)cc2=O)C2(CCCC2)C1)N1CCNC[C@H]1c1ccccc1`, in series [5], the IC50 was determined as 1 µM. Further, the Papp A→B at 2 h in series [6] was 1 ×10⁻⁶ cm/s.

With `CN[C@@H]1CCN(C(=O)N2CC[C@@H](Cn3cnc4ccc(F)cc4c3=O)C3(CCCC3)C2)[C@H](c2ccc(F)cc2F)C1` [Example 191, 3-(((R)-7-((2S,4R)-2-(2,4-Difluorophenyl)-4-(methylamino)piperidine-1-carbonyl)-7-azaspiro[4.5]decan-10-yl)methyl)-6-fluoroquinazolin-4(3H)-one], in series [1], the IC50 is below 0.01 µM.

In the case of `N[C@@H]1CCN(C(=O)N2CC[C@@H](Cn3ccc(-c4ccccc4)cc3=O)C3(CCCC3)C2)[C@H](c2cc(F)cc(F)c2)C1` [Example 108, 1-(((R)-7-((2S,4R)-4-Amino-2-(3,5-difluorophenyl)piperidine-1-carbonyl)-7-azaspiro[4.5]decan-10-yl)methyl)-4-phenylpyridin-2(1H)-one], the IC50 in series [1] is below 0.01 µM.

In the case of `CN[C@@H]1CCN(C(=O)N2CC[C@@H](Cn3cccnc3=O)C3(CCCC3)C2)[C@H](c2ccc(F)cc2F)C1` [Example 128, 1-(((R)-7-((2S,4R)-2-(2,4-Difluorophenyl)-4-(methylamino)piperidine-1-carbonyl)-7-azaspiro[4.5]decan-10-yl)methyl)pyrimidin-2(1H)-one], in series [1], the IC50 lay within 0.1 to 1 µM.

Turning to `N[C@@H]1CCN(C(=O)N2CC[C@H](Cn3ccc(-c4ccccc4)cc3=O)C3(CCCC3)C2)[C@H](c2ccccc2)C1` [Example 24, 1-(((S)-7-((2S,4R)-4-Amino-2-phenylpiperidine-1-carbonyl)-7-azaspiro[4.5]decan-10-yl)methyl)-4-phenylpyridin-2(1H)-one], the IC50 in series [1] is 1 to 20 µM.
